Experimental data: the supplement of paper PMC10307832

Tests used:
Test in all cases: relative viability (nuclei count vs DMSO), 5 days (fraction); higher = more cells survive
[1] = compound: CC1=CC(=CC=C1)NC2=NC(=CS2)C3=CC=NC=C3 + N=C(N)NC(=N)NCCc1ccccc1 [Phenformin] (partner 250 µM)
In short: (§1)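 Relative viability divides the nuclei count in treated wells by that in vehicle wells. Lung cancer cell lines were seeded in 1536-well plates, dosed by pin tool the next day, and fixed and stained after 5 days in one step with final 0.05% Triton X-100, 1% formaldehyde and 1 ug/ml Hoechst. Dosing was a single drug or a fixed anchor-drug dose plus five library-drug doses (not always all listed) in √10 steps, and values are medians of duplicate plates imaged at 4×.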

Masitinib + Palbociclib = compound: Cc1ccc(NC(=O)c2ccc(CN3CCN(C)CC3)cc2)cc1Nc1nc(-c2cccnc2)cs1 [Masitinib] + CC(=O)c1c(C)c2cnc(Nc3ccc(N4CCNCC4)cn3)nc2n(C2CCCC2)c1=O [Palbociclib] (partner 0.5 µM)
In short: as §1

Masitinib + Luminespib = compound: Cc1ccc(NC(=O)c2ccc(CN3CCN(C)CC3)cc2)cc1Nc1nc(-c2cccnc2)cs1 [Masitinib] + CCNC(=O)c1noc(-c2cc(C(C)C)c(O)cc2O)c1-c1ccc(CN2CCOCC2)cc1 [Luminespib] (partner 0.01 µM)
In short: as §1

Masitinib + OSI-027 = compound: Cc1ccc(NC(=O)c2ccc(CN3CCN(C)CC3)cc2)cc1Nc1nc(-c2cccnc2)cs1 [Masitinib] + COc1cccc2cc(-c3nc([C@H]4CC[C@H](C(=O)O)CC4)n4ncnc(N)c34)[nH]c12 [OSI-027] (partner 0.5 µM)
In short: as §1

Work on UMC-11 yielded a relative viability ([1]; first compound 0.08 µM) of 0.314, a relative viability ([1]; first compound 0.253 µM) of 0.298 and a relative viability ([1]; first compound 0.8 µM) of 0.32. For the same cell line, the relative viability ([1]; first compound 2.53 µM) was 0.307, the relative viability ([1]; first compound 8 µM) was 0.349 and the relative viability (Masitinib + Palbociclib; first compound 0.01 µM) was 0.323. It also gave a relative viability (Masitinib + Palbociclib; first compound 0.03162 µM) of 0.384, a relative viability (Masitinib + Palbociclib; first compound 0.1 µM) of 0.319 and a relative viability (Masitinib + Palbociclib; first compound 0.3162 µM) of 0.351. For the same cell line, the relative viability (Masitinib + Palbociclib; first compound 1 µM) was 0.304, the relative viability (Masitinib + Luminespib; first compound 0.03162 µM) was 1.08 and the relative viability (Masitinib + Luminespib; first compound 0.1 µM) was 1.13. It also gave a relative viability (Masitinib + Luminespib; first compound 0.3162 µM) of 1.17, a relative viability (Masitinib + Luminespib; first compound 1 µM) of 1.12 and a relative viability (Masitinib + OSI-027; first compound 0.03162 µM) of 0.46. The relative viability (Masitinib + OSI-027; first compound 0.1 µM) was 0.487, the relative viability (Masitinib + OSI-027; first compound 0.3162 µM) was 0.491 and the relative viability (Masitinib + OSI-027; first compound 1 µM) was 0.46.
